The values below come from article PMC5632533, “Mechanisms of action and in vivo antibacterial efficacy assessment of five novel hybrid peptides derived from Indolicidin and Ranalexin against Streptococcus pneumoniae” (PeerJ, 2017).

For assay [1], the system named is S. pneumoniae. Description: ATP efflux assay. It counts as cell-based, Streptococcus pneumoniae. The conditions noted are these: peptides 125 µg/ml (RN7-IN7 500 µg/ml); for ATP released, Average 1hr / ATP released, Average 2hr / ATP released, Average 3hr: raw data sheet, mean of 3. As to the method:
The amount of ATP released from pneumococcal cells incubated with hybrid peptides was measured as described previously, with a slight modification ([Tanida et al., 2006]). The ATP determination kit (Molecular Probes, Eugene, OR, USA) was used to measure the amount of ATP released based on the luciferin/luciferase method according to the manufacturer’s instructions. Briefly, S. pneumoniae were grown overnight on Columbia agar with 5% sheep blood. Bacterial suspensions were spectrophotometrically adjusted to (1 × 10^7 CFU/ml) and incubated with hybrid peptides RN7-IN10, RN7-IN9, RN7-IN8 and RN7-IN6 at 125 µg/ml and with RN7-IN7 at 500 µg/ml. The amount of ATP released form the pneumococcal cells were measured at three time points 1, 2 and 3 h. The samples were then centrifuged at 5,000 rpm for 5 min, and ATP efflux was subsequently estimated using an ATP standard curve. Values were obtained from three independent experiments. Ceftriaxone and erythromycin were used as positive controls.

Assay [2] deals with S. pneumoniae genomic DNA. The experiment in a line: Gel retardation assay (DNA retardation). It counts as binding, Streptococcus pneumoniae. The conditions noted are these: 250 ng genomic DNA; 0.24–500 µg/ml tested; 10 min, room temperature; 1% agarose gel. As to the method: This assay was carried out as described previously, with minor modifications ([Li et al., 2013]). S. pneumoniae were grown overnight on Columbia agar with 5% sheep blood. A few bacterial colonies were transferred into a 1.5 ml eppendorf tube containing phosphate buffered saline (PBS). The bacterial cells were centrifuged, PBS was discarded and 50 µl of TE buffer containing 0.08 g/ml of lysozyme and 150 U/ml of mutanolysin was added to the cells. Genomic DNA was isolated from pneumococcal cells using DNeasy Blood & Tissue Kit (Qiagen, Hilden, Germany), following the manufacturer’s giudlines. The optical density ratio of 260 nm and 280 nm (OD260∕OD280 = 1.83) was used to measure the purity of the DNA. Genomic DNA (250 ng) was incubated with hybrid peptides at various concentrations (0.24–500 µg/ml) in 12 μl at room temperature for 10 min. 2 μl of loading buffer were added to the mixture and the migration of DNA through 1% agarose gel was evaluated by electrophoresis in 1 × Tris borate–EDTA buffer (45 mM Tris–borate and 1 mM EDTA at pH 8.0) and spotted by the fluorescence of gel stain (Gel Red, BIOTIUM, Fremont, CA, USA). The natural peptide indolicidin was used as positive controls, ceftriaxone and erythromycin were used as negative controls.

In assay [3] the test system is S. pneumoniae (highly virulent strain). Description: In vivo antipneumococcal activity, pneumococcal bacteremia (lethal systemic infection) model. Details: species or system mice. The method, then:
Two pneumococcal infection models developed previously in our lab ([Le et al., 2015]) were used to assess the therapeutic efficacy of peptides in vivo. The systemic infection model was used to mimic pneumococcal bacteremia in humans and the pneumococcal pneumonia model was used to mimic pneumococcal pneumonia in humans. A highly virulent strain was used in both the models. The bacterial isolate was grown overnight on Columbia agar with 5% sheep blood at 37 °C under 5% CO2. The bacterial suspension was adjusted to OD625 0.08-0.1 (1 ∼ 2 × 10^8 CFU/ml). Mice tested for lethal systemic infection were inoculated with 1.5 × 10^2 CFU/mouse (100 μl) via IP route. Mice used to assess the Pneumococcal pneumonia model were inoculated with pneumococcal cells of 5 × 10^3 CFU/mouse (50 μl) via the intrathoracic route.
After 1 hr of inoculation, Mice receiving treatment were randomized and divided into six groups. RN7-IN10 and RN7-IN8 were tested at three different doses for each (5 mg/kg, 10 mg/kg and 20 mg/kg) using a group of 10 mice. Graded doses of ceftriaxone (5 mg/kg, 10 mg/kg, […], 40 mg/kg and 80 mg/kg) were also tested to assess the in vivo antibacterial activity of this antibiotic. Only mice injected with PBS were served as uninfected control. Mice injected with bacterial inoculum were used as untreated control group and given sterile distilled water only. Survival of mice was documented for seven days or until death. After seven days, the experiment was ended, the blood and homogenates of the five major organs (kidney, brain, spleen, liver and lung) of the surviving mice were plated on Columbia agar with 5% sheep blood, to detect the presence of pneumococcal cells. […]

The subject of assay [4] is Resistant S. pneumoniae. To be noted: incubation with resistant S. pneumoniae; ref Jindal et al., 2015; cited from earlier work.
Assay [5] concerns Streptococcus pneumoniae. To be noted: 30 pneumococcal clinical isolates; earlier study; ref Jindal et al., 2015; cited from earlier work. An excerpt:
Table 1 Sequences and physicochemical properties of the template and hybrid AMPs. | column: MIC^a || One of the advantageous alternatives to today’s antibiotics is antimicrobial peptides (AMPs) ([Deslouches et al., 2013]; [Sánchez-Vásquez et al., 2013]). AMPs are synthesized by almost all living beings as the first line of defense in their immune system against microbial infection. Many aspects favor AMPs over traditional antibiotics: a broad range of antimicrobial activity against pathogenic micro-organisms (including viruses, parasites, bacteria, and fungi), microbial pathogens are less efficient in developing resistance against AMPs, as killing take place in a short contact time and AMPs c ...

Assay [6] has as its system S. pneumoniae. The experiment in a line: Transmission electron microscopy (TEM) of treated cells. It counts as cell-based, Streptococcus pneumoniae. The conditions noted are these: 10^8 CFU/ml in CAMHB; 8 × MIC (125 µg/ml; RN7-IN7 500 µg/ml); 1 h, 37 °C, 5% CO2. As to the method: Bacteria were prepared for TEM according to the guidelines of the Electron Microscopy Unit at the Faculty of Medicine, University of Malaya. S. pneumoniae cultures were grown overnight on Columbia agar with 5% sheep blood and suspended in cationally adjusted Mueller-Hinton broth (CAMHB) at 10^8 CFU/ml. […] Cells in cationally adjusted Mueller-Hinton broth (CAMHB) were used as an untreated control. After an hour of incubation, the pneumococcal cells were centrifuged to discard the medium, washed thrice with 10 mM phosphate buffer saline at pH 7.3 and fixed overnight in 4% (v/v) glutaraldehyde. All samples were washed twice with cacodylate buffer, incubated for 2 h in osmium tetroxide buffer (OsO4 1: 1 cacodylate), washed twice with cacodylate buffer and then incubated overnight in cacodylate buffer. All the samples were washed with distilled water twice and incubated for 10 min with uranyl acetate. After this, all samples were then washed twice with distilled water and dehydrated in an ascending series of ethanol: 35% (10 min), 50% (10 min), 70% (10 min), 95% (15 min), and thrice in 100% ethanol (15 min). After dehydration, samples were incubated with propylene oxide (15 min), propylene oxide 1:1 Epon (1 h), propylene oxide 1:3 Epon (2 h) and finally incubated overnight with Epon. All the samples were embedded in agar 100 resin at 37 °C for 5 hr and maintained at 60 °C until viewing. Reichert Ultramicrotome copper grids 3.05 mm (300 square mesh) (Agar Scientific, Essex, United Kingdom) were used to prepare Ultrathin sections. Ethanol-based uranyl acetate and lead citrate were used to stain the samples for 5 min. Transmission electron microscope (Leo Libra 120) was used to capture the images.

Where [7] appears, read: 1 × 10^7 CFU/ml, luciferin/luciferase, ATP standard curve, mean ± SD, three independent experiments.

`CO/N=C(\C(=O)N[C@@H]1C(=O)N2C(C(=O)O)=C(CSc3nc(=O)c(=O)[nH]n3C)CS[C@H]12)c1csc(N)n1` [ceftriaxone, reference compound]: the “ATP released from pneumococcal cells after 1 h” value (“ATP released … after 1 h” for short) in assay [1] (setting [7]) was determined as 5.24 ± 1.43 pM. Besides, in assay [1], the “ATP released, Average 1hr” value is listed as 5.248 pM. Moreover, the “ATP released, Average 2hr” value in assay [1] is 3.522 pM. The “ATP released, Average 3hr” value in assay [1] turned out to be 3.119 pM. Also, in assay [2], the “concentration inhibiting migration of genomic DNA through the agarose gel” value (“concentration inhibiting migration” for short) is above 500 µg/mL. The “survival of infected mice up to seven days post-infection” value was found to be 10% in assay [3] (1.5 × 10^2 CFU/mouse IP, treatment IP 5 mg/kg (peptides at 1 h, 12 h, 24 h post-infection), 10 mice); 30% in assay [3] (1.5 × 10^2 CFU/mouse IP, treatment IP 10 mg/kg (peptides at 1 h, 12 h, 24 h post-infection), 10 mice); 40% in assay [3] (1.5 × 10^2 CFU/mouse IP, treatment IP 20 mg/kg (peptides at 1 h, 12 h, 24 h post-infection), 10 mice); 70% in assay [3] (treatment IP 40 mg/kg); 90% in assay [3] (treatment IP 80 mg/kg). Moreover, in assay [4], the “time to bactericidal activity / elimination of S. pneumoniae” value is listed as above 240 min.
For `CC[C@H]1OC(=O)[C@H](C)[C@@H](O[C@H]2C[C@@](C)(OC)[C@@H](O)[C@H](C)O2)[C@H](C)[C@@H](O[C@@H]2O[C@H](C)C[C@H](N(C)C)[C@H]2O)[C@](C)(O)C[C@@H](C)C(=O)[C@H](C)[C@@H](O)[C@]1(C)O` [erythromycin, reference compound], the “ATP released … after 1 h” value in assay [1] (setting [7]) amounted to 0.49 ± 0.004 pM. Further, in assay [1], the “ATP released, Average 1hr” value is given as 0.4933 pM; the “ATP released, Average 2hr” value is 0.4736 pM; the “ATP released, Average 3hr” value was 0.3124 pM. In assay [2], the “concentration inhibiting migration” value is above 500 µg/mL.
In the case of “FLGGLIKIVPAMICAVTKKC-OH [Ranalexin, natural template antimicrobial peptide]”, the “MIC, minimum inhibitory concentration” value in assay [5] is 62.5 µg/mL.
Consider “FLGGLIKPWWPWRR-NH2 [RN7-IN7, hybrid peptide of ranalexin (residues 1-7) and indolicidin (residues 7-13)]”, for which the “TEM: detachment of cell wall from cell membrane” value in assay [6] is recorded as “partial disconnection of the cell wall from the cell membrane”. Besides, in assay [1] (setting [7]), the “ATP released … after 1 h” value amounted to 22.35 ± 0.9 pM and the “ATP released from pneumococcal cells after 3 h” value worked out at 13.02 ± 2.26 pM. Also, in assay [5], the “MIC, minimum inhibitory concentration” value is 62.5 µg/mL.
Regarding “ILPWKWPWWPWRR-NH2 [Indolicidin, natural template (parent) antimicrobial peptide]”, the “concentration inhibiting migration” value in assay [2] is 62.5 µg/mL. Further, the “MIC, minimum inhibitory concentration” value in assay [5] is 15.62 to 31.25 µg/mL.
